Test results as given in publication PMC10066322 (Scientific Reports, 2023).

Key:
[1] = molecular target: T1, PARN1-430 (Homo sapiens, UniProt O95453); test: Inhibition fluorescence assay (FAM-RNA / BHQ quencher deadenylase assay); format: biochemical; conditions: for PARN inhibitor in vitro: computational docking compounds, fluorescence assay and gels, PARN1-430 pretreated with drug 10 min
T1 construct: expression of the C-terminal truncated protein (1-430 aa of PARN) was soluble; His tag (from the pCold I vector); made in house; host or cells: E. coli Rosetta 2 DE
T1 sequence (O95453 1-430): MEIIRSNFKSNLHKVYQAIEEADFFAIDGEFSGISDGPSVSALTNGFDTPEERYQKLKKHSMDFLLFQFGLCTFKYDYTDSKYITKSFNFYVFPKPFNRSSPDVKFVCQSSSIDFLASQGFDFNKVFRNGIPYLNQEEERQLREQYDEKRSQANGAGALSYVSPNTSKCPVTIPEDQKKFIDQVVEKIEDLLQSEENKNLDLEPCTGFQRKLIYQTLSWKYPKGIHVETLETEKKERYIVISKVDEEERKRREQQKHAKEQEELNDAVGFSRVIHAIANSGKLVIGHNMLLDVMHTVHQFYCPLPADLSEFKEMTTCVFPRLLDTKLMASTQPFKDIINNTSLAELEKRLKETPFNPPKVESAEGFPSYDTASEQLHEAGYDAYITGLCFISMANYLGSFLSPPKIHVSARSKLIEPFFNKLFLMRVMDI
Procedure: To easily screen compounds for inhibition of PARN activity, we developed an assay in which fluorescence was used as the readout for monitoring PARN1-430’s activity (Fig. 3a). This assay was modeled on a similar assay developed for Caf1/CNOT7 deadenylase. In this assay, PARN1-430 was incubated with a 5′-fluorescently labeled oligoadenylated RNA. In the absence of deadenylation, this substrate RNA can effectively hybridize to a complementary DNA oligonucleotide with a quencher on its 3′ end leading to a loss of fluorescence (Fig. 3a). When the RNA substrate is deadenylated, the quenching oligonucleotide is no longer able to stably hybridize leading to an increase in fluorescence in the reaction.
Figure 3 Developing a fluorescence assay for PARN inhibition. (a) Cartoon depicting the inhibition fluorescence assay. Schematic diagram of the fluorescence-based deadenylase assay. The assay is based on a 5′ FAM-labelled RNA oligonucleotide substrate. After incubation of the substrate in the presence of PARN1-430, the reaction is stopped and a 3′ BHQ-labelled DNA oligonucleotide probe complementary to the RNA substrate is added. The fluorescence of intact substrate is quenched upon probe hybridization because of the proximity of the BHQ […]. In contrast, the BHQ-labelled probe cannot hybridize to the FAM-labelled reaction product allowing detection of FAM fluorescence. […] 2-way ANOVA, multiple comparisons test, average ± SD, n = 3 replicates. *P < 0.05, **P < 0.005, ***P < 0.001, ****P < 0.0001, n.s. was not indicated. […] Dotted-line represents RNA and RNA + Quencher data. One-way ANOVA, multiple comparisons test, average ± SD, n ≥ 3 replicates. *P < 0.05, **P < 0.005, ***P < 0.001, ****P < 0.0001, n.s. was not indicated. (d) PARN1-430 and PARNmut enzymatic activity measured at different time points. […] Dotted-line represents RNA and RNA + Quencher data. 2-way ANOVA, multiple comparisons test, average ± SD, n = 3 replicates. *P < 0.05, **P < 0.005, ***P < 0.001, ****P < 0.0001, n.s. was not indicated.
Quenched reaction was incubated at room temperature for 10–60 min and fluorescence was measured using Fluorescein wavelength measurement.

[2] = molecular target: T2, PARN (Homo sapiens, UniProt O95453); test: High-throughput screening fluorescence assay with 8-point IC50 curves; format: biochemical; conditions: high-throughput screening hits; 8 points 1:3 dilution, top 100 µM
T2 construct: expression of the C-terminal truncated protein (1-430 aa of PARN) was soluble; His tag (from the pCold I vector); made in house; host or cells: E. coli Rosetta 2 DE
T2 sequence (O95453 1-430): T1 sequence (O95453 1-430)
Procedure: To identify PARN inhibitors in a high-throughput manner, 24,000 compounds from the Enamine kinase library were tested in a HTS utilizing the fluorescence assay (Fig. 3a).
2 µL of protein (100 nM final concentration) (stock protein was diluted in 1× lysis buffer (HEPES KOH, pH 7.4, 30 mM, KOAc 100 mM, and Mg(OAc)2 2 mM) was added to wells using offline Multidrop Combi nL. The reaction was pre-incubated with 12.5 nL of Sygnature library (Enamine kinase library (HBL-24) (31.25 μM) for 15 min before 2 µL of RNA (10 µM) was added (DMSO was added to control wells using Echo 655). The reaction was incubated at 22 °C for 20 min in Cytomat automatic incubator. After the incubation, the reaction was quenched by adding 4 µL of quencher solution (30 µM of 3′-BHQ labeled quench DNA in 1% SDS) using Multidrop Combi nL. The quenched reaction was incubated at room temperature for 10 min and fluorescence was measured using PHERAstar FSX (λ485/520). For the counter screen, no protein was added to the reaction.
Curves were fitted within Genedata using SmartFit algorithm.

[3] = molecular target: T1, PARN1-430; test: Gel assay of poly(A) RNA shortening by PARN1-430; format: biochemical
Procedure: PARN1-430 was incubated with a fluorescently labeled RNA with a CCUUUCC sequence followed by a 9 nucleotide-long poly(A) tail and the reaction product was visualized on denaturing acrylamide gels. We observed that PARN removed the 3′ oligo(A) tail from the RNA substrate (Fig. 2c and d). […] Moreover, we observed that PARN is inhibited when treated with adenosine monophosphate (AMP), as has been reported previously.
1 µL of protein (73 nM as final concentration) (stock protein is diluted in 1× lysis buffer (HEPES KOH, pH 7.4, 30 mM, KOAc 100 mM, and Mg(Oac)2 2 mM) was added to 4 µL of 2.5× reaction buffer (Tris–HCl pH 7.4, 10 mM, KCl 50 mM, MgCl2 5 mM). If drug was added, reaction was pre-incubated with drugs for 10 min before 5 µL of RNA (5 µM as final concentration) was added. The reaction was incubated at 37 °C for 20 min. After the incubation, the reaction was either diluted with 2× loading buffer and heated to 95 °C for 5 min for gel or quenched by adding 10 µL of quencher solution (30 µM of 3′-BHQ labeled quench DNA in 1% SDS). Quenched reaction was incubated at room temperature for 10–60 min and fluorescence was measured using Fluorescein wavelength measurement.
15% TBE-Urea gel (Thermo Fisher Scientific) was prerun at 20W for 30 min. RNAs from the reaction was loaded into 15% TBE gels and run at 300 V for 35 min. The gel was visualized using iBright (Invitrogen FL1500).

[4] = tested on: PARN activity in Hela cells; test: miR-21-5p levels in Hela cells by northern blotting (PARN inhibition in cells); format: cell-based, human; conditions: 10 µM, 2 days
Procedure: 48 h after transfection/drug treatment, cells were collected for either RNA or protein analysis.
Total RNA was extracted from cell lysates using TriZol as per manufacturer’s protocol and DNAse treated. After quantification on Nanodrop, total RNA was separated on an acrylamide 7 M Urea gel. RNA was transferred to a nylon membrane (Nytran SPC, GE Healthcare) using semiwet transfer. After UV/EDC crosslinking, the blot was pre-hybridized and hybridized in PerfectHyb Plus Hybridization Buffer (Sigma Aldrich) at 42 °C. Northern probes have been previously described[11],[48]. After hybridization and washing in 2 × SSC 0.1% SDS wash buffer, blots were exposed to a cassette and imaged on a Typhoon FLA 9500 Phosphoimager. Band intensities were quantified using ImageJ and normalized to the U1 levels under each condition.

[5] = molecular target: T2, PARN; conditions: cited from earlier work

| Compound | PARN inhibitor in vitro [1] | Ki [5] [µM] | PARN inhibitor in vitro [5] | also measured |
| --- | --- | --- | --- | --- |
| Nc1cccc(-c2cc3c(Oc4cccc(O)c4)ncnc3[nH]2)c1 [TWS119] | No | – | – | – |
| O=C(Nc1ncnc2c1ncn2[C@@H]1O[C@H](CO)C[C@H](F)[C@H]1O)c1ccccc1 [TH18] | – | – | – | IC50 [2]: 0.2 µM; inhibition of PARN on gels ([3]; 20 μM compound): could inhibit PARN at 20 μM, except for TH18; PARN inhibitor in cells [4]: No |
| Nc1ncnc2c1ncn2[C@@H]1O[C@H](COP(=O)(O)O)[C@@H](O)[C@H]1O [AMP, adenosine monophosphate] | – | – | – | inhibition of PARN1-430, fluorescence assay ([1]; 2.5 mM AMP, PARN1-430 73 nM): effectively inhibited; inhibitory effect on PARN1-430, gel assay [3]: inhibited; concentration at which PARN1-430 is inhibited [5]: > 1 mM |
| NC[C@@H]1O[C@H](O[C@H]2[C@@H](O)[C@H](O[C@@H]3[C@@H](O)[C@H](N)C[C@H](N)[C@H]3O[C@H]3O[C@H](CO)[C@@H](O)[C@H](O)[C@H]3N)O[C@@H]2CO)[C@H](N)[C@@H](O)[C@@H]1O [Paromomycin] | – | 17.3 ± 3.5 | Yes | – |
| Cc1cn([C@@H]2O[C@H](CO)[C@@H](O)[C@H](F)[C@H]2O)c(=O)[nH]c1=O [T1, 1-(3′-deoxy-3′-fluoro-β-d-glucopyranosyl) thymine] | – | 135 ± 18 | Yes | – |
| OC[C@H]1OC(O)[C@H](O)[C@@H](F)[C@@H]1O (stereo partly shown) [B6] | – | – | Yes | – |
| NC[C@@H]1O[C@H](O[C@H]2[C@@H](O)[C@H](O[C@@H]3[C@@H](O)[C@H](N)C[C@H](N)[C@H]3O[C@H]3O[C@H](CO)[C@@H](O)C[C@H]3N)O[C@@H]2CO)[C@H](N)[C@@H](O)[C@@H]1O[C@H]1O[C@H](CO)[C@@H](O)[C@H](O)[C@@H]1O [Lividomycin] | – | 18.7 ± 2.8 | Yes | – |
| CCn1nc(C2CCN(C(=O)CCO)CC2)nc1-c1cnc(N)c(-c2nnc(C(C)(C)C)o2)n1 [AZD8835] | No | – | – | – |
| Nc1ncnc2c1c(I)cn2C1OC(CO)C(O)C1O (stereo not shown) [5-ITU, 5-Iodotubercidin] | No | – | – | – |
| O=c1ccn([C@@H]2O[C@H](CO)[C@@H](O)[C@H](F)[C@H]2O)c(=O)[nH]1 [U1, 1-(3′-deoxy-3′-fluoro-β-d-glucopyranosyl) uracil] | – | 19 ± 5 | Yes | – |
| O=C(Nc1ncnc2c1ncn2[C@@H]1O[C@H](CO)C[C@H](F)[C@H]1O)c1ccccc1 [A2, 9-(3′,4′, dideoxy-3′-fluoro-β-d-glucopyranosyl)-N6-benzoyl adenine] | – | 510 ± 52 | Yes | – |
| Nc1ncnc2c1ccn2[C@@H]1O[C@H](CO)[C@@H](O)[C@H]1O [Tubercidine] | Yes | – | – | – |
| Nc1ncnc2c1ncn2[C@@H]1O[C@H](CO)[C@@H](O)[C@@H]1O [Vidarabine] | No | – | – | – |
| COc1nc(N)c2ncn([C@@H]3O[C@H](CO)[C@@H](O)[C@H]3O)c2n1 [Spongosine] | Yes | – | – | – |
| O=C(Nc1ncnc2c1ncn2[C@@H]1O[C@H](CO)C[C@H](F)[C@H]1O)c1ccccc1 [A6, 1-(3′,4′, dideoxy-3′-fluoro-β-d-glucopyranosyl)-N4-benzoyl adenine] | – | 210 ± 45 | Yes | – |
| Nc1nc(Cl)nc2c1ncn2[C@H]1C[C@H](O)[C@@H](CO)O1 [Cladribine] | Yes | – | – | – |
| NC[C@@H]1O[C@H](O[C@H]2[C@@H](O)[C@H](O[C@@H]3[C@@H](O)[C@H](N)C[C@H](N)[C@H]3O[C@H]3O[C@H](CN)[C@@H](O)[C@H](O)[C@H]3N)O[C@@H]2CO)[C@H](N)[C@@H](O)[C@@H]1O [Neomycin B] | – | 0.4 ± 0.1 | Yes | – |
| Nc1ncnc2c1ncn2[C@H]1O[C@@H](CO)[C@H](O)[C@@H]1O [L-adenosine] | No | – | – | – |
| NC(=O)c1ncn([C@@H]2O[C@H](CO)[C@@H](O)[C@H]2O)c1N [AICAR] | No | – | – | – |
| NC[C@H]1O[C@H](O[C@H]2[C@H](O)[C@@H](O[C@H]3O[C@H](CO)[C@@H](O)[C@H](N)[C@H]3O)[C@H](N)C[C@@H]2N)[C@H](N)C[C@@H]1O [Tobramycin] | – | 7.1 ± 0.2 | Yes | – |
| O=c1[nH]c(=O)n([C@@H]2O[C@H](CO)[C@@H](O)[C@H](F)[C@H]2O)cc1F [FU1, 1-(3′-deoxy-3′-fluoro-β-d-glucopyranosyl) 5-fluorouracil] | – | 98 ± 12 | Yes | – |
| Kanamycin A | – | – | Yes | – |
| Nc1ncnc2c1c(Br)cn2[C@@H]1O[C@H](CO)[C@@H](O)[C@H]1O [5-bromotubercidine] | No | – | – | – |
| NC[C@H]1O[C@H](O[C@H]2[C@H](O)[C@@H](O[C@H]3O[C@H](CO)[C@@H](O)[C@H](N)[C@H]3O)[C@H](N)C[C@@H]2N)[C@H](N)[C@@H](O)[C@@H]1O [Kanamycin B] | – | 7.3 ± 0.4 | Yes | – |
| CNC(=O)c1cnn(-c2nc(N)c3ncn([C@@H]4O[C@H](CO)[C@@H](O)[C@H]4O)c3n2)c1 [Regadenoson] | Yes | – | – | – |
| Nc1nc(Cl)nc2c1ncn2[C@@H]1O[C@H](CO)[C@@H](O)[C@@H]1F [Clofarabine] | No | – | – | – |
